Among the data in patent US10821115B2, “Compounds that inhibit Mcl-1 protein” (priority 2017, dated 2020) are IC50 values, retold here.

Assay [1] has as its target recombinant human Mcl-1 (residues 171-327) / Bim interaction (Homo sapiens (Human), UniProt Q07820). Description: biochemical. Conditions: read-out: Mcl-1 HTRF IC50. Type of assay: binding. Background: In TR-FRET formats the signal depends on donor and acceptor labels being close together.
The subject of assay [2] is human multiple myeloma cell line, OPM-2. Description: Cell viability assay (OPM-2 10 FBS), CellTiter-Glo. Type of assay: cell-based. The gist of the method: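 Cells were seeded at 3000 cells/well in RPMI 1640 with 10% FBS and exposed to serially diluted compounds for 16 h at 37 °C, 5% CO2.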
(Cellular ATP, detected with luciferase, serves as a proxy for viable cell number.)

The mark [3] stands for this setting: TR-FRET, Mcl-1(171-327) / biotin-Bim (51-76).
Where [4] appears, read: Homo sapiens, OPM-2, 16 h, read-out: OPM-2 10% FBS IC50 IP, OPM-2 cells, 10% FBS, 16 h, CellTiter-Glo.
The mark [5] stands for this setting: 0.1 nM Mcl-1(171-327), 0.05 nM biotin-Bim (51-76).
The mark [6] stands for this setting: Homo sapiens, OPM-2, 16 h, read-out: OPM-2 10% FBS IC50 IP, OPM-2 cells, 10% FBS, 16 h incubation.
Where [7] appears, read: read-out: OPM-2 10% FBS IC50 IP, OPM-2 cells, 10% FBS, 16 h, CellTiter-Glo.

Molecules are shown by their SMILES. Where two headings read alike, the source gives them in different places.

recombinant human Mcl-1 (residues 171-327) / Bim interaction, sequence (Q07820 171-327): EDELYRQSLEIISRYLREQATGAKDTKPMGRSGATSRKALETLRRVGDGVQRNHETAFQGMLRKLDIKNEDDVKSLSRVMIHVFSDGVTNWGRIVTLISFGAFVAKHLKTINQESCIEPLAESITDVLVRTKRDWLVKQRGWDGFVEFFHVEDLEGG

As a reminder, the IC50 is the point on the concentration scale where inhibition reaches its midpoint. For `CO[C@@]1(C2SCCCS2)CCC[C@H](C)[C@@H](C)S(=O)(=O)NC(=O)c2ccc3c(c2)N(C[C@@H]2CC[C@H]21)C[C@@]1(CCCc2cc(Cl)ccc21)CO3` [Example 100249, (1S,3′R,6′R,7′S,11′S,12′R)-6-chloro-7′-(1,3-dithian-2-yl)-7′-methoxy-11′,12′-dimethyl-3,4-dihydro-2H,15′H-spiro[naphthalene-1,22′-[20]oxa[13]thia[1,14]diazatetracyclo [14.7.2.0~3,6~.0~19,24~]pentacosa[16,18,24]trien]-15′-one 13′,13′-dioxide], the IC50 in assay [1] (setting [3]) came to 2.99 nM; in assay [2] (setting [4]), 2270 nM.

Regarding `C[C@@H]1[C@@H](C)CCC[C@@]2(C[C@H](C)C(=O)O2)[C@@H]2CC[C@H]2CN2C[C@@]3(CCCc4cc(Cl)ccc43)COc3ccc(cc32)C(=O)NS1(=O)=O` (stereo in doubt) [Example 100129], the IC50 in assay [1] (setting [3]) came to 2.4 nM; in assay [2] (setting [4]) it was 4870 nM.

For the molecule `COCCN1CCN(C[C@@]2(OC)/C=C/C[C@H](C)[C@@H](C)S(=O)(=O)NC(=O)c3ccc4c(c3)N(C[C@@H]3CC[C@H]32)C[C@@]2(CCCc3cc(Cl)ccc32)CO4)CC1=O` [Example 54, (1S,3′R,6′R,7′R,8′E,11′S,12′R)-6-chloro-7′-methoxy-7′-((4-(2-methoxyethyl)-3-oxo-1-piperazinyl)methyl)-11′,12′-dimethyl-3,4-dihydro-2H,15′H-spiro[naphthalene-1,22′-[20]oxa[13]thia[1,14]diazatetracyclo [14.7.2.0~3,6~.0~19,24~]pentacosa[8,16,18,24]tetraen]-15′-one 13′,13′-dioxide], the half-inhibitory concentration (IC50) is 0.173 nM in assay [1] (setting [5]) and 129 nM in assay [2] (setting [6]).

With `CO[C@]1(CN2C[C@@H]3C[C@H]2CN3C(C)C)/C=C/C[C@H](C)[C@@H](C)S(=O)(=O)NC(=O)c2ccc3c(c2)N(C[C@@H]2CC[C@H]21)C[C@@]1(CCCc2cc(Cl)ccc21)CO3` [Example 315, (1S,3′R,6′R,7′R,8′E,11′S,12′R)-6-chloro-7′-methoxy-11′,12′-dimethyl-7′-(((1S,4S)-5-(1-methylethyl)-2,5-diazabicyclo[2.2.1]hept-2-yl)methyl)-3,4-dihydro-2H,15′H-spiro[naphthalene-1,22′-[20]oxa[13]thia[1,14]diazatetracyclo [14.7.2.0~3,6~.0~19,24~]pentacosa[8,16,18,24]tetraen]-15′-one 13′,13′-dioxide], the IC50 in assay [1] (setting [5]) was determined as 0.122 nM; in assay [2] (setting [6]), 124 nM.

With `CC[C@@H]1CC/C=C/[C@](CN2CCN3CCCC[C@@H]3C2)(OC)[C@@H]2CC[C@H]2CN2C[C@@]3(CCCc4cc(Cl)ccc43)COc3ccc(cc32)C(=O)NS1(=O)=O` [Example 29, (1S,3′R,6′R,7′S,8′E,12′R)-6-chloro-12′-ethyl-7′-methoxy-7′-((9aR)-octahydro-2H-pyrido[1,2-a]pyrazin-2-ylmethyl)-3,4-dihydro-2H,15′H-spiro[naphthalene-1,22′-[20]oxa[13]thia[1,14]diazatetracyclo [14.7.2.0~3,6~.0~19,24~]pentacosa[8,16,18,24]tetraen]-15′-one 13′,13′-dioxide], the results for the 50% inhibitory concentration (IC50) in assay [1] (setting [5]) and in assay [2] (setting [6]) were 0.249 nM and 186 nM, respectively.

Consider `CCCN1CCN(C[C@@]2(OCC)/C=C/C[C@H](C)[C@@H](C)S(=O)(=O)NC(=O)c3ccc4c(c3)N(C[C@@H]3CC[C@H]32)C[C@@]2(CCCc3cc(Cl)ccc32)CO4)CC1` [Example 98, (1S,3′R,6′R,7′R,8′E,11′S,12′R)-6-chloro-7′-ethoxy-11′,12′-dimethyl-7′-((4-propyl-1-piperazinyl)methyl)-3,4-dihydro-2H,15′H-spiro[naphthalene-1,22′-[20]oxa[13]thia[1,14]diazatetracyclo [14.7.2.0~3,6~.0~19,24~]pentacosa[8,16,18,24]tetraen]-15′-one 13′,13′-dioxide], for which the results for the IC50 in assay [1] (setting [5]) and in assay [2] (setting [6]) were 0.373 nM and 183 nM, respectively.

With `Cc1nccnc1C[C@@]1(O)/C=C/C[C@H](C)[C@@H](C)S(=O)(=O)NC(=O)c2ccc3c(c2)N(C[C@@H]2CC[C@H]21)C[C@@]1(CCCc2cc(Cl)ccc21)CO3` [Example 100526, (1S,3′R,6′R,7′R,8′E,11′S,12′R)-6-chloro-7′-hydroxy-11′,12′-dimethyl-7′-((3-methyl-2-pyrazinyl)methyl)-3,4-dihydro-2H,15′H-spiro[naphthalene-1,22′-[20]oxa[13]thia[1,14]diazatetracyclo [14.7.2.0~3,6~.0~19,24~]pentacosa[8,16,18,24]tetraen]-15′-one 13′,13′-dioxide], the IC50 came out at 0.387 nM in assay [1] (setting [3]) and 826 nM in assay [2] (setting [4]).

Regarding `COCCN(C)C(=O)C[C@]1(O)CCC[C@H](C)[C@@H](C)S(=O)(=O)NC(=O)c2ccc3c(c2)N(C[C@@H]2CC[C@H]21)C[C@@]1(CCCc2cc(Cl)ccc21)CO3` [Example 100141, 2-((1S,3′R,6′R,7′R,11′S,12′R)-6-chloro-7′-hydroxy-11′,12′-dimethyl-13′,13′-dioxido-15′-oxo-3,4-dihydro-2H-spiro[naphthalene-1,22′-[20]oxa[13]thia[1,14]diazatetracyclo [14.7.2.0~3,6~.0~19,24~]pentacosa[16,18,24]trien]-7′-yl)-N-(2-methoxyethyl)-N-methylacetamide], the IC50 in assay [1] (setting [3]) is 1.06 nM; in assay [2] (setting [7]), 1370 nM.

As for `C[C@@H]1[C@@H](C)C/C=C/[C@@](O)(CC(=O)N2CC(F)(F)C2)[C@@H]2CC[C@H]2CN2C[C@@]3(CCCc4cc(Cl)ccc43)COc3ccc(cc32)C(=O)NS1(=O)=O` [Example 100297, (1S,3′R,6′R,7′S,8′E,11′S,12′R)-6-chloro-7′-(2-(3,3-difluoro-1-azetidinyl)-2-oxoethyl)-7′-hydroxy-11′,12′-dimethyl-3,4-dihydro-2H,15′H-spiro[naphthalene-1,22′-[20]oxa[13]thia[1,14]diazatetracyclo [14.7.2.0~3,6~.0~19,24~]pentacosa[8,16,18,24]tetraen]-15′-one 13′,13′-dioxide], the IC50 in assay [1] (setting [3]) is 0.115 nM; in assay [2] (setting [4]), 168 nM.

As to `C=C(F)C[C@]1(O)/C=C/C[C@H](C)[C@@H](C)S(=O)(=O)NC(=O)c2ccc3c(c2)N(C[C@@H]2CC[C@H]21)C[C@@]1(CCCc2cc(Cl)ccc21)CO3` [Example 100565, (1S,3′R,6′R,7′S,8′E,11′S,12′R)-6-chloro-7′-(2-fluoro-2-propen-1-yl)-7′-hydroxy-11′,12′-dimethyl-3,4-dihydro-2H,15′H-spiro[naphthalene-1,22′-[20]oxa[13]thia[1,14]diazatetracyclo [14.7.2.0~3,6~.0~19,24~]pentacosa[8,16,18,24]tetraen]-15′-one 13′,13′-dioxide], the IC50 in assay [1] (setting [3]) was 1.54 nM; in assay [2] (setting [4]), 2060 nM.

Take `CO[C@@]1(CN2CCN3C(=O)COC[C@@H]3C2)/C=C/C[C@H](C)[C@@H](C)S(=O)(=O)NC(=O)c2ccc3c(c2)N(C[C@@H]2CC[C@H]21)C[C@@]1(CCCc2cc(Cl)ccc21)CO3` [Example 141, (1S,3′R,6′R,7′S,8′E,11′S,12′R)-6-chloro-7′-methoxy-11′,12′-dimethyl-7′-(((9aS)-4-oxohexahydropyrazino[2,1-c][1,4]oxazin-8(1H)-yl)methyl)-3,4-dihydro-2H,15′H-spiro[naphthalene-1,22′-[20]oxa[13]thia[1,14]diazatetracyclo [14.7.2.0~3,6~.0~19,24~]pentacosa[8,16,18,24]tetraen]-15′-one 13′,13′-dioxide]: the IC50 in assay [1] (setting [5]) is 0.152 nM; in assay [2] (setting [6]), 367 nM.

With `CO[C@@]1(C)/C=C/C[C@H](C)[C@@H](CCO)S(=O)(=O)NC(=O)c2ccc3c(c2)N(C[C@@H]2CC[C@H]21)C[C@@]1(CCCc2cc(Cl)ccc21)CO3` (single isomer, unassigned) [Example 100596], the IC50 turned out to be 0.229 nM in assay [1] (setting [3]) and 186 nM in assay [2] (setting [7]).

On to `C[C@H](C(=O)O)[C@@]1(O)/C=C/C[C@H](C)[C@@H](C)S(=O)(=O)NC(=O)c2ccc3c(c2)N(C[C@@H]2CC[C@H]21)C[C@@]1(CCCc2cc(Cl)ccc21)CO3` (single isomer, unassigned) [Example 100120], for which the IC50 in assay [1] (setting [3]) amounted to 0.067 nM; in assay [2] (setting [7]), 635 nM.

Turning to `CN[C@@H]1C[C@H](C)[C@@H](C)S(=O)(=O)NC(=O)c2ccc3c(c2)N(C[C@@H]2CC[C@H]2[C@@](C)(O)C1)C[C@@]1(CCCc2cc(Cl)ccc21)CO3` [Example 100064, (1S,3′R,6′R,7′S,9′R,11′S,12′R)-6-chloro-7′-hydroxy-7′,11′,12′-trimethyl-9′-(methylamino)-3,4-dihydro-2H,15′H-spiro[naphthalene-1,22′-[20]oxa[13]thia[1,14]diazatetracyclo [14.7.2.0~3,6~.0~19,24~]pentacosa[16,18,24]trien]-15′-one 13′,13′-dioxide], the IC50 worked out at 2.54 nM in assay [1] (setting [3]) and 3730 nM in assay [2] (setting [4]).

Take `CO[C@]1(CN2CCN3CCN(S(C)(=O)=O)C[C@@H]3C2)/C=C/C[C@H](C)[C@@H](C)S(=O)(=O)NC(=O)c2ccc3c(c2)N(C[C@@H]2CC[C@H]21)C[C@@]1(CCCc2cc(Cl)ccc21)CO3` (single isomer, unassigned) [Example 237]: the IC50 in assay [1] (setting [5]) came out at 0.13 nM; in assay [2] (read-out: OPM-2 10% FBS IC50 IP, OPM-2 cells, 10% FBS, 16 h incubation) it was 64 nM.
